According to patent US20070134744A1, “Epothilone resistant cell lines” (priority 2000, published 2007):

Legend:
EA10 cells = assay: MTS growth inhibition assay; assay type: cell-based
Experimental: (§1) Growth inhibition may be analyzed using conventional methods, for example a MTS assay (PROMEGA, Wis.) may be used. In this assay approximately 4000 cells per well are seeded in 96 well plates in MEM supplemented with 10% fetal calf serum and incubated at 37° C. in 5.0% CO2. After 24 hours, dilutions of drug (concentration range used is between 1 nM and 1000 nM) are added and cells are allowed to incubate with drug for an additional 72 hours. The MTS reagent mixed with PMS (MTS:PMS 20:1 according to manufacturer's instructions) is then added and absorbance quantitated using a Thermomax microplate reader system according to conventional methods (Molecular Devices, Sunnyvale, Calif.). […] Six assays per drug per plate are performed.
(§2) Thus, at least two potential mechanisms of epothilone A resistance may exist—a lower resistance mechanism that is cross-resistant to TAXOL® and a higher, epothilone A specific resistance mechanism.

EA150 cells = assay: MTS growth inhibition assay; assay type: cell-based
Experimental: as §1, §2

EA20 cells = assay: MTS growth inhibition assay; assay type: cell-based
Experimental: as §1, §2

EA60 cells [1] = assay: MTS growth inhibition assay; assay type: cell-based
Experimental: as §1, §2

MDA-MB-435 cells [2] = assay: MTS growth inhibition assay; assay type: cell-based; conditions: MTS, 72 hours drug, Table 1
Experimental: as §1, §2

KB-8511 cells = assay type: cell-based, human
Experimental: Data in Table 4 are gathered according to the following methods: Cells (1×10^3) are seeded in 96-well plates and allowed to adhere for 24 hrs. Compounds are then added as two-fold serial dilutions and incubation continued for an additional 72 hrs. Cell numbers at the beginning and at the end of the experiment are estimated by methylene blue staining of cellular protein mass according to conventional methods. The net mass increase of vehicle-treated cells is set as 100% growth. The IC50 is determined as the drug concentration that leads to half-maximal growth inhibition compared to the control. The resistance factor (RF) for a particular drug is calculated by dividing the IC50 determined on the resistant cell line by that determined on the parental KB-31 cells. Data are presented as average±standard deviation (SD) of three separate experiments, except na=not applicable (n<3). Colchicine-selected KB-8511 cells overexpressing P-glycoprotein served as a reference for the classical multi-drug-resistant phenotype.

KB-31 cells = assay: In vitro cell growth inhibition assay (methylene blue); assay type: cell-based, human; conditions: read-out: concentration half-maximally inhibiting proliferation
Experimental: Anti-proliferative assays are performed basically as described (Meyer et al., Int. J. Cancer 43:851 (1989)). Briefly, cells are seeded at 1.5×10^3 cells/well into 96-well microtiter plates and allowed to adhere by incubation overnight. Compounds are added in serial dilutions on day 1. The plates are then incubated for an additional 3 days, after which the cells are fixed with 3.3% v/v glutaraldehyde, washed with water and stained with 0.05% w/v methylene blue according to conventional methods. After washing, the dye is eluted with 3% HCl and the optical density measured at 665 nm with a SpectraMax Plus (Molecular Devices, Sunnyvale, Calif.) according to manufacturers instructions. IC50 values are determined by mathematical curve-fitting using the SoftPro2.6.1 program (Molecular Devices, Sunnyvale, Calif.) using the formula (OD treated−OD start)/(OD control−OD start)×100. […] IC50 determinations with the cell line 298/D4/40 are performed in the presence of 40 nM epothilone A.
The epothilone resistant cell lines, EpoA320-80C, EpoA320/ND, 298/D4/40, 297/C5/0 and 315/sc5.9 are generated as disclosed above. […] A subclone, 298/D4/40, is adapted to grow in the presence of 40 nM epothilone A administered twice weekly (i.e. at every medium change). […]

EA60 cells [3] = assay: Cell cycle analysis by FACS; assay type: cell-based; conditions: 24 hours, 60 nM epothilone A
Experimental: (§3) Cells are fixed by resuspending in cold 70% ethanol, washing again with 5 ml of PBS and resuspending in PI solution ([…] propidium iodide, 38 mM sodium citrate, 20 μg/ml RNAse A). After incubation in PI solution at 37° C. for 30 minutes, cells are analyzed by flow cytometry according to conventional methodology (apparatus and software commercially available from Becton Dickinson Immunocytometry Systems, CA).
(§4) Cell cycle distribution patterns of epothilone A resistant and parental MDA-MB-435 epothilone A sensitive cells are compared by standard FACS analysis. […] Thus, a significant part of the epothilone A resistant cell population appears to overcome the G2/M block that normally occurs in the cell cycle of epothilone A sensitive cells.

MDA-MB-435 cells [4] = assay: Cell cycle analysis by FACS; assay type: cell-based; conditions: 24 hours, 20 nM epothilone A
Experimental: as §3, §4

`C/C(=C\c1csc(C)n1)[C@@H]1C[C@@H]2O[C@@H]2CCC[C@H](C)[C@H](O)[C@@H](C)C(=O)C(C)(C)[C@@H](O)CC(=O)O1` [Epothilone A, epothilone A] was tested, and the “increase in IC50 over MDA-MB-435 cells” value (EA10 cells) was 5 fold, the IC50 (EA10 cells; MTS, 72 hours drug, Table 1) was 18 ± 3.8 nM and the “increase in IC50 over MDA-MB-435 cells” value (EA150 cells) was > 100 fold. For the same compound, the IC50 (EA150 cells; MTS, 72 hours drug, Table 1) was > 500 nM, the “increase in IC50 over MDA-MB-435 cells” value (EA20 cells) was 7 fold and the IC50 (EA20 cells; MTS, 72 hours drug, Table 1) was 28 ± 3 nM. For the same compound, the “increase in IC50 over MDA-MB-435 cells” value (EA60 cells [1]) was 15 fold, the IC50 (EA60 cells [1]; MTS, 72 hours drug, Table 1) was 82 ± 1.5 nM and the IC50 (MDA-MB-435 cells [2]) was 4 ± 1.8 nM. For the same compound, the “RF (resistance factor: IC50 resistant cell line / IC50 parental KB-31)” value (KB-8511 cells; KB-8511 (Colch selected), 72 hrs, average of three experiments) was 0.7, the “resistance profile in words” value (KB-8511 cells; KB-8511 vs parental KB-31) was “retain full activity” and the IC50 (KB-31 cells) was 3.2 nM. The cell cycle distribution (EA60 cells [3]) was “overcomes the G2/M phase block” and the cell cycle distribution (MDA-MB-435 cells [4]) was “blocked at the G2/M phase”.
